Our source for the IC50 values is patent US20220047569A1, “METHOD AND COMPOUND FOR USE, IN TREATING AND/OR PREVENTING NETOSIS” (Jubilant EpiPad LLC, priority 2020, published 2022).

Usually IC50 stands for the concentration needed to halve the response being measured.

Where a name gives a salt, the structure may show the parent alone.

The test relates to Histone H3 Citrullination in Neutrophils. Put plainly: Citrullination ELISA (Citrullinated Histone H3) in calcium ionophore stimulated neutrophils. Conditions: Neutrophil; human neutrophils, 25 μM calcium ionophore, CitH3 ELISA. The format is cell-based. The procedure: Neutrophils were isolated according to the EasySep Direct Human Neutrophil Isolation Kit. In short, 50 mL of blood sample was drawn in a vacutainer containing K2EDTA from a healthy donor. To the whole blood, the isolation cocktail of 50 μL/mL was added. Then, in the next step 50 μL/mL of RapidSpheres™ was added to the sample. The sample was mixed evenly with the pipette and incubated for 10 minutes at room temperature. After incubation, PBS containing 1 mM EDTA was added at the ratio of 1:1 to the blood. Then the sample tube was incubated for 10 minutes. The enriched cell suspension was transferred into a new tube and RapidSpheres™ were added at 50 μL/mL to this suspension, mixed and incubated for 10 minutes at room temperature. At this step, the enriched cell suspension was carefully collected as a clear fraction into a fresh tube. Then, previous tube was replaced with the fresh tube containing enriched cell suspension. After the final separation, the clear solution of enriched cell suspension was carefully transferred to fresh tube which was ready to use for the experiment. These cells were then subjected to wash twice with plain RPMI 1640 media without Fetal Bovine Serum (FBS) and centrifuged at 1500 rpm for 5 minutes at room temperature. Cell counts were performed on each sample by Invitrogen cell counter. After the cell count, cell density was adjusted according to the experiment and re-suspended in complete RPMI media containing RPMI1640, 2% BSA and 1 mM CaCl2.
Freshly isolated neutrophils from human donor were seeded at a density of 0.5×10^6 cells in 400 μL cell suspension/well in a 24-well plate and cells were pre-incubated with the compound for 30 minutes by adding 50 μL of the 10× concentration to achieve the final 1× concentration of compound (10 μM, 1 μM and 0.1 μM). 1% DMSO was added in control wells. Then, the cells were stimulated in the presence and absence of calcium ionophore by adding 50 μL/well to achieve the final concentration of 25 μM. Upon incubation for 30 minutes with calcium ionophore, S7 nuclease was added to the wells and incubated for 10 minutes to disrupt NET DNA. Following incubation, 10 μL of 1 mM EDTA was added to inactivate nuclease. Cells were scrapped gently and transferred to the tubes, followed by centrifugation at 1500 rpm for 5 minutes. After centrifugation, supernatant was discarded, and 200 μL of lysis buffer containing PBS and 1× Protease inhibitor was added to the tubes. The obtained lysis was then subjected to mechanical shearing using Geno grinder by spin the plate at 2500 rpm for 10 minutes, followed by collection of supernatant and stored at −20° C. or immediately used for ELISA.
ELISA was performed as per Citrullinated Histone H3 ELISA Kit. All the buffer components from the kit were dissolved according to the manufactures protocol. ELISA Buffer Concentrate (10×) (Item No. 400060) and Wash Buffer Concentrate (400×) (Item No. 400060) along with polysorbate 20 (2000×) (Item No. 400035) was diluted to 1× with milliQ water. The standard for use in the ELISA was prepared as follows: • Obtain eight clean test tubes and label them, #1 through #8. Aliquot 4.9 mL of ELISA Buffer into tube #1. • Aliquot 500 μL of ELISA Buffer into the tubes #2-8. […] This tube is considered as blank, the lowest point on the standard curve.
100 μL of standards or diluted sample was added to the appropriate wells on the 96-well plate. Plates were covered with 96-well cover sheet and incubated for two hours at room temperature on an orbital shaker. The samples and standard were removed from the wells and washed four times with Wash Buffer. After the last wash, Anti-Histone H3 HRP Conjugate (Item No. 501441) (10×) stock solution was diluted in 1×ELISA buffer and 100 μL of the HRP Conjugate working solution was added to each well of the plate and incubated for one hour at room temperature on an orbital shaker. […]
A general note: In an ELISA, binding on a coated surface is turned into a signal by an enzyme label.
Consider `Cc1c(-c2cc3ccc(F)cc3n2Cc2ccc(F)cc2)nc2cc(C(=O)N3CCC[C@@H](N)C3)ccn12` [Compound 54, (R)-(3-aminopiperidin-1-yl)(2-(6-fluoro-1-(4-fluorobenzyl)-1H-indol-2-yl)-3-methylimidazo[1,2-a]pyridin-7-yl)methanone], for which the IC50 was below 100 nM.

With `Cc1c(-c2cc3ccc(F)cc3n2CC2CC2)nc2cc(C(=O)N3CCC[C@@H](N)C3)ccn12` [Compound 52, (R)-(3-aminopiperidin-1-yl)(2-(1-(cyclopropylmethyl)-6-fluoro-1H-indol-2-yl)-3-methylimidazo[1,2-a]pyridin-7-yl)methanone trifluoroacetic acid salt], the IC50 lay within 100 to 1000 nM.

`Cc1csc(Cn2c(-c3nc4cc(C(=O)N5CCC[C@@H](N)C5)ccn4c3C)cc3ccccc32)n1` [Compound 41, (R)-(3-aminopiperidin-1-yl)(3-methyl-2-(1-((4-methylthiazol-2-yl)methyl)-1H-indol-2-yl)imidazo[1,2-a]pyridin-7-yl)methanone]: the IC50 lay within 100 to 1000 nM.

On to `Cc1c(-c2cc3ccccc3n2Cc2ccc(F)cc2)nc2cc(C(=O)N3CCC[C@@H](NC(=O)/C=C/CN(C)C)C3)ccn12` [Compound 56, (R,E)-4-(dimethylamino)-N-(1-(2-(1-(4-fluorobenzyl)-1H-indol-2-yl)-3-methylimidazo[1,2-a]pyridine-7-carbonyl)piperidin-3-yl)but-2-enamide], for which the IC50 is above 1000 nM.

As to `N[C@@H]1CCCN(C(=O)c2cc3c4c(c2)nc(-c2cc5ccc(F)cc5n2CC2CC2)n4CCO3)C1` [Compound 114, (R)-(3-aminopiperidin-1-yl)(2-(1-(cyclopropylmethyl)-6-fluoro-1H-indol-2-yl)-3,4-dihydro-5-oxa-1,2a-diazaacenaphthylen-7-yl)methanone], the IC50 is below 100 nM.

As to `Cc1csc(Cn2c(-c3nc4cc(C(=O)N5CCC[C@@H](N)C5)cc5c4n3CCO5)cc3ccccc32)n1` [Compound 145, (R)-(3-aminopiperidin-1-yl)(2-(1-((4-methylthiazol-2-yl)methyl)-1H-indol-2-yl)-3,4-dihydro-5-oxa-1,2a-diazaacenaphthylen-7-yl)methanone], the IC50 was below 100 nM.

Turning to `N[C@@H]1CCCN(C(=O)c2cc3c4c(c2)nc(-c2cc5ccccc5n2Cc2cccnc2)n4CCO3)C1` [Compound 102, (R)-(3-aminopiperidin-1-yl)(2-(1-(pyridin-3-ylmethyl)-1H-indol-2-yl)-3,4-dihydro-5-oxa-1,2a-diazaacenaphthylen-7-yl)methanone], the concentration for half-maximal inhibition (IC50) was below 100 nM.

Regarding `COc1ccc2cc(-c3nc4cc(C(=O)N5CCC[C@@H](N)C5)cc5c4n3CCO5)n(Cc3ccc(F)cc3)c2c1` [Compound 137, (R)-(3-aminopiperidin-1-yl)(2-(1-(4-fluorobenzyl)-6-methoxy-1H-indol-2-yl)-3,4-dihydro-5-oxa-1,2a-diazaacenaphthylen-7-yl)methanone], the IC50 is above 1000 nM.

`COc1ccc2cc(-c3nc4cc(C(=O)N5CCC[C@@H](N)C5)cc5c4n3CCN5)n(CC3CC3)c2c1` [Compound 159, (R)-(3-aminopiperidin-1-yl)(2-(1-(cyclopropylmethyl)-6-methoxy-1H-indol-2-yl)-5,6-dihydro-4H-imidazo[1,5,4-de]quinoxalin-8-yl)methanone]: the IC50 lay within 100 to 1000 nM.

Turning to `Cc1c(-c2cc3ccccc3n2Cc2cncnc2)nc2cc(C(=O)N3CCC[C@@H](N)C3)ccn12` [Compound 58, (R)-(3-aminopiperidin-1-yl)(3-methyl-2-(1-(pyrimidin-5-ylmethyl)-1H-indol-2-yl)imidazo[1,2-a]pyridin-7-yl)methanone trifluoroacetic acid salt], the IC50 was above 1000 nM.

As to `N[C@@H]1CCCN(C(=O)c2cc3c4c(c2)nc(-c2cc5ccccc5n2Cc2cnccn2)n4CCO3)C1` [Compound 111, (R)-(3-aminopiperidin-1-yl)(2-(1-(pyrazin-2-ylmethyl)-1H-indol-2-yl)-3,4-dihydro-5-oxa-1,2a-diazaacenaphthylen-7-yl)methanone], the IC50 fell in the range of 100 to 1000 nM.

Regarding `COc1ccc(Cn2c(-c3nc4cc(C(=O)N5CCC[C@@H](N)C5)cc5c4n3CCO5)cc3ccccc32)cc1` [Compound 105, (R)-(3-aminopiperidin-1-yl)(2-(1-(4-methoxybenzyl)-1H-indol-2-yl)-3,4-dihydro-5-oxa-1,2a-diazaacenaphthylen-7-yl)methanone], the IC50 fell in the range of 100 to 1000 nM.

Regarding `Cc1c(-c2cc3ccccc3n2CC(F)F)nc2cc(C(=O)N3CCC[C@@H](N)C3)ccn12` [Compound 78, (R)-(3-aminopiperidin-1-yl)(2-(1-(2,2-difluoroethyl)-1H-indol-2-yl)-3-methylimidazo[1,2-a]pyridin-7-yl)methanone trifluoroacetic acid salt], the IC50 is above 1000 nM.

For `N[C@@H]1CCCN(C(=O)c2cc3c4c(c2)nc(-c2cc5ccccc5n2Cc2ncccc2F)n4CCO3)C1` [Compound 112, (R)-(3-aminopiperidin-1-yl)(2-(1-((3-fluoropyridin-2-yl)methyl)-1H-indol-2-yl)-3,4-dihydro-5-oxa-1,2a-diazaacenaphthylen-7-yl)methanone], the IC50 was below 100 nM.

Regarding `COc1cccc(Cn2c(-c3nc4cc(C(=O)N5CCC[C@@H](N)C5)ccn4c3C)cc3ccccc32)c1` [Compound 42, (R)-(3-aminopiperidin-1-yl)(2-(1-(3-methoxybenzyl)-1H-indol-2-yl)-3-methylimidazo[1,2-a]pyridin-7-yl)methanone], the half-inhibitory concentration (IC50) is below 100 nM.

As to `N[C@@H]1CCCN(C(=O)c2cc3c4c(c2)nc(-c2cc5ccccc5n2CC2CCC2)n4CCO3)C1` [Compound 127, (R)-(3-aminopiperidin-1-yl)(2-(1-(cyclobutylmethyl)-1H-indol-2-yl)-3,4-dihydro-5-oxa-1,2a-diazaacenaphthylen-7-yl)methanone], the concentration for half-maximal inhibition (IC50) lay within 100 to 1000 nM.

Take `N[C@@H]1CCCN(C(=O)c2cc3c4c(c2)nc(-c2cc5ccccc5n2Cc2ccc(CO)cc2)n4CCO3)C1` [Compound 123, (R)-(3-aminopiperidin-1-yl)(2-(1-(4-(hydroxymethyl)benzyl)-1H-indol-2-yl)-3,4-dihydro-5-oxa-1,2a-diazaacenaphthylen-7-yl)methanone trifluoroacetic acid salt]: the IC50 lay within 100 to 1000 nM.

Take `N[C@@H]1CCCN(C(=O)c2cc3c4c(c2)nc(-c2cc5ccccc5n2CC2CCOCC2)n4CCO3)C1` [Compound 126, (R)-(3-aminopiperidin-1-yl)(2-(1-((tetrahydro-2H-pyran-4-yl)methyl)-1H-indol-2-yl)-3,4-dihydro-5-oxa-1,2a-diazaacenaphthylen-7-yl)methanone]: the IC50 was above 1000 nM.

In the case of `COc1ccc2cc(-c3nc4cc(C(=O)N5CCC[C@@H](N)C5)ccn4c3C)n(Cc3cccnc3)c2c1` [Compound 51, (R)-(3-aminopiperidin-1-yl)(2-(6-methoxy-1-(pyridin-3-ylmethyl)-1H-indol-2-yl)-3-methylimidazo[1,2-a]pyridin-7-yl)methanone], the half-inhibitory concentration (IC50) is above 1000 nM.

Turning to `COCCn1c(-c2nc3cc(C(=O)N4CCC[C@@H](N)C4)cc4c3n2CCO4)cc2cc(F)ccc21` [Compound 134, (R)-(3-aminopiperidin-1-yl)(2-(5-fluoro-1-(2-methoxyethyl)-1H-indol-2-yl)-3,4-dihydro-5-oxa-1,2a-diazaacenaphthylen-7-yl)methanone], the IC50 is 100 to 1000 nM.

In the case of `Cc1c(-c2cc3ccccc3n2CC2CCOCC2)nc2cc(C(=O)N3CCC[C@@H](N)C3)ccn12` [Compound 11, (R)-(3-aminopiperidin-1-yl)(3-methyl-2-(1-((tetrahydro-2H-pyran-4-yl)methyl)-1H-indol-2-yl)imidazo[1,2-a]pyridin-7-yl)methanone], the IC50 lay within 100 to 1000 nM.
